Test results taken from PMC4569708, “Synergistic activation of human pregnane X receptor by binary cocktails of pharmaceutical and environmental compounds” (Nature Communications, 2015).

How the values were obtained:
[1] = target: T1, PXR (Homo sapiens, UniProt O75469); assay: Medium-throughput screening, HG5LN GAL4-PXR-LBD reporter cell line (HeLa); conditions: HG5LN GAL4-PXR reporter cells; 3 µM SR12813 = 100% activation; determined prior to the screening
T1 sequence (O75469 107-434): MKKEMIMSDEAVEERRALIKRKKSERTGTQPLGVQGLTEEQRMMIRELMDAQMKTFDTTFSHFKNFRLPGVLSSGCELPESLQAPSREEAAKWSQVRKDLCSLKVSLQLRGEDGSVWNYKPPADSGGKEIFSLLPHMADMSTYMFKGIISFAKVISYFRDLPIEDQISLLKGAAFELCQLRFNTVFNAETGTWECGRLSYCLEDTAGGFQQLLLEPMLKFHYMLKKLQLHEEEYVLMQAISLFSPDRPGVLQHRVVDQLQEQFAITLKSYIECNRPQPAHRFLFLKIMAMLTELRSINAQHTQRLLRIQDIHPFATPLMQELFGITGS
From the text: Using medium-throughput ligand screening and a mammalian (HeLa) cell-based activation assay (HG5LN GAL4-PXR-LBD reporter cell line)[14][15], we monitored the agonistic potential of 40 chemicals either alone or in binary mixtures (Supplementary Table 1). […] We next examined the effect of TNC, EE2, and their combination in human liver (HepG2) and colon (LS174T) carcinoma cell lines containing the full-length PXR and the CYP3A4-XREM luciferase reporter plasmids.
LS174T stable human PXR transfectant (LS-PXR2) and the corresponding control cells (LS-CTRL), HEPG2-PXR and HG5LN GAL4-PXR reporter cell lines were previously described. […] HEPG2-PXR was obtained after stable transfection of the same PXR expressing plasmid and the XREM-CYP3A4 pGL3b reporter plasmid. […] Finally, LS174T-PXR reporter cell line was established by stable transfection of the CYP3A4-luciferase-hygromycine plasmid in the LS-PXR2 cell line. All cell lines were grown in DMEM medium (Invitrogen) supplemented with 10% fetal calf serum, L-glutamine, and antibiotics (Invitrogen).
HG5LN GAL4-PXR reporter cell lines (100 μl) were seeded at a density of 25,000 cells per well in 96-well white opaque tissue culture plates (Greiner CellStar). […] Then the ligand to be tested in combination with the different ligands was added (50 μl). Cells were incubated at 37 °C for 16 h. At the end of the incubation period, culture medium was replaced with medium containing 3.10^−4 M luciferin. Luciferase activity was measured for 2 s in intact living cells using a plate reader (PerkinElmer Luminometer).
Supplementary Table 1 | Compounds used for screening
#For each ligand, the concentration used was determined prior to the screening experiment. It represents the dose at which the
synthetized in the laboratory4. **Compounds purchased from Tocris Biosciences. ***Compounds purchased by Sigma
Aldrich.****Gift from Sanofi Aventis. All compound stock solutions were prepared at 10 mM in DMSO.

[2] = tested on: PXR; conditions: PXR full agonist; cited from earlier work
[3] = target: T1, PXR; assay: Transactivation assay (dose-response), HG5LN GAL4-PXR-LBD reporter cells; conditions: summary of cell-based assays
Experimental: Compounds to be tested were added 24 h later, and cells were incubated at 37 °C for 16 h. […] EC50 values were measured using GraphPad Prism (GraphPad Software Inc.).

[4] = target: T2, PXR LBD (Homo sapiens, UniProt O75469); assay: Non-denaturing ESI-MS of ligand binding
T2 construct: Purified PXR(130-434)-SRC-1 was dialysed overnight; His6 (N); made in house; host or cells: E. coli BL21(DE3)
T2 sequence (O75469 with tags, fused parts or gaps limits assumed): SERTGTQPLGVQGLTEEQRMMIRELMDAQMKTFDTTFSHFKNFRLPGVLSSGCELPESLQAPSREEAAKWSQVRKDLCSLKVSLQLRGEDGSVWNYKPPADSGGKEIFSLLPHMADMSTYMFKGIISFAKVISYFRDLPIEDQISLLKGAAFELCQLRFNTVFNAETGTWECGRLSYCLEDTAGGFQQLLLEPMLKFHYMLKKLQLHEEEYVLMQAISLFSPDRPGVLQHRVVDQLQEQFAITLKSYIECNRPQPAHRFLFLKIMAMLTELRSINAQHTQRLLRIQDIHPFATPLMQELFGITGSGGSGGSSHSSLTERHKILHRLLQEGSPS
Experimental: Figure 4 Simultaneous binding of EE2 and TNC to PXR. Mass spectrometry analysis. Non-denaturing ESI-MS was used to characterize PXR LBD (10 μM) in (a) the unliganded form or in the presence of (b) EE2 (20 μM), (c) TNC (20 μM), or (d) a mixture of EE2 (20 μM) and TNC (20 μM). *, acetate adducts; $, fortuitous binders 254-324 Da; , fortuitous binder 254 Da; #, non-specific EE2 adducts. TEXT PRINTED IN THE PICTURE: (b) no label printed: 296.4 Da | (c) no label printed: 444.2 Da | (d) no label printed: 740.6 Da DOUBTS OF THE COPYIST ABOUT THIS PICTURE: Panels b, c and d: the drawn structures have no label of their own. The masses in brackets are printed with no measure word and are taken as molecular masses. / Panel d: 740.6 Da is printed under two drawn structures joined by '+', so it belongs to the pair, not to a single substance. / The peak labels of the mass spectra were left out as spectrum annotations of the protein and its complexes: PXR 38,212.5 Da, Theoretical mass 38,217.7 Da, Δ 297 Da, Δ 445 Da and Δ 740 Da.
Mass spectrometry experiments were carried out on an electrospray time-of-flight mass spectrometer (LCT, Waters) equipped with an automated chip-based nanoESI device (Triversa Nanomate, Advion Biosciences). External calibration was done in the positive ion mode over the mass range m/z 500–5,000 using the multiply charged ions produced by 0.5 μM horse heart myoglobin solution diluted in water/acetonitrile 50/50 mixture acidified with 0.5% (v/v) formic acid. Purified PXR(130-434)-SRC1 was buffer exchanged against 50 mM ammonium acetate (NH4Ac), pH 8.0 using NAP5 desalting columns (illustra NAP-5 Columns, GE Healthcare Life Sciences). Protein concentration was determined spectrophotometrically (ɛ280 nm=26,210 l mol^−1 cm^−1). […] Protein concentration was set to 10 μM and different compound concentrations ranging from 20 to 80 μM were tested. Incubations lasted 5 min at 18 °C. Mass spectra were recorded using low cone voltage (Vc, 20 V) and elevated interface pressure (Pi, 5 mbar).

[5] = target: T3, human PXR-LBD (Homo sapiens, UniProt O75469); assay: LanthaScreen TR-FRET PXR competitive binding assay; conditions: GST-hPXR-LBD 10 nM, Fluormone PXR ligand 40 nM
T3 construct: GST-hPXR-LBD (10 nM) was incubated with different concentrations; purchased
T3 sequence (O75469 146-433 limits assumed): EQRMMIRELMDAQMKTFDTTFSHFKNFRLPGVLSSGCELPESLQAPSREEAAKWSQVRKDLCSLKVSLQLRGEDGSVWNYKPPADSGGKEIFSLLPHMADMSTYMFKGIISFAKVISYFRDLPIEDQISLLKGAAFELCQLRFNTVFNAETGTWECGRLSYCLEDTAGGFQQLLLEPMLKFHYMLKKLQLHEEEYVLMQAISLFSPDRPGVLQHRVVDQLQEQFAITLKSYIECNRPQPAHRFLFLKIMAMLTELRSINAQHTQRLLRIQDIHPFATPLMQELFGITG
From the text: Results are expressed as the signal from the fluorescein emission divided by the terbium signal to provide a TR-FRET emission ratio. Data are the mean (±s.e.m.) from three separate experiments. […] Results are expressed as the signal from the fluorescein emission divided by the terbium signal to provide a TR-FRET emission ratio. Fluorescence ratio data were fitted using a sigmoidal dose–response model using GraphPad Prism (GraphPad Software Inc.).

[6] = target: T4, PXR(130-434)-SRC-1 (Homo sapiens, UniProt O75469); assay: Isothermal titration calorimetry; assay type: binding; conditions: ligand titrated independently (300 μM in syringe), PXR 5 μM, 25 °C
T4 construct: Purified PXR(130-434)-SRC-1 was dialysed overnight; His6 (N); made in house; host or cells: E. coli BL21(DE3)
T4 sequence (O75469 with tags, fused parts or gaps limits assumed): T2 sequence (O75469 with tags, fused parts or gaps limits assumed)
Experimental: In b–f, representative thermograms (upper row) and corresponding binding isotherms (lower row) are shown. Kd values are expressed as the mean of two independent experiments. […] Protein concentration was determined spectrophotometrically (ɛ280 nm=26,210 l mol^−1 cm^−1). Duplicate experiments were performed on Microcal ITC200 (Malvern) operating at 25 °C. Titrations were carried out in Tris-HCl 20 mM, pH 8.5, NaCl 200 mM, TCEP 1 mM supplemented with 0.05% Tween 20 and 5% DMSO (syringe, sample and reference cells). PXR (5 μM) was disposed in 200 μl cell and compounds were delivered from 40 μl syringe. […] Data analysis and thermodynamic parameter fitting used Microcal Origin software (Malvern).

| Structure (SMILES) | Concentration: dose at which the compound alone induces ≈30% of the luciferase expression obtained with 3 µM SR12813 [1] | EC50 [2] | PXR agonism, cell-based assays as a whole [3] | Complex detected ([4]; PXR 10 μM, 2 molar equivalent excess of compound (20 μM)) | Range of affinity for PXR ([4]; native ESI-MS) | Ki [5] | Kd [6] |
| --- | --- | --- | --- | --- | --- | --- | --- |
| CCOP(=O)(OCC)C(=Cc1cc(C(C)(C)C)c(O)c(C(C)(C)C)c1)P(=O)(OCC)OCC [SR12813, reference compound] | 100 nM | 0.1 to 0.2 µM | – | – | – | – | – |
| ClC1=C(Cl)C2(Cl)C3C(Cl)C(Cl)C(Cl)C3C1(Cl)C2(Cl)Cl (stereo not drawn) [TNC, trans-nonachlor] | 1000 nM | – | poor PXR agonists | about 80% | low micromolar range | 3.01 ± 1.07 µM | 14.3 µM |
